The text below walks through data of PMC8968952, “Modulation of ERCC1-XPF Heterodimerization Inhibition via Structural Modification of Small Molecule Inhibitor Side-Chains” (Frontiers in Oncology, 2022).

One series addresses T1, ERCC1-XPF (Homo sapiens, UniProt Q92889).
T1 construct: the final purity of the full-length ERCC1-XPF heterodimer was determined to be ~35%; His6; made in house; host or cells: E. coli BL21(DE3)
T1 sequence (Q92889 1-916): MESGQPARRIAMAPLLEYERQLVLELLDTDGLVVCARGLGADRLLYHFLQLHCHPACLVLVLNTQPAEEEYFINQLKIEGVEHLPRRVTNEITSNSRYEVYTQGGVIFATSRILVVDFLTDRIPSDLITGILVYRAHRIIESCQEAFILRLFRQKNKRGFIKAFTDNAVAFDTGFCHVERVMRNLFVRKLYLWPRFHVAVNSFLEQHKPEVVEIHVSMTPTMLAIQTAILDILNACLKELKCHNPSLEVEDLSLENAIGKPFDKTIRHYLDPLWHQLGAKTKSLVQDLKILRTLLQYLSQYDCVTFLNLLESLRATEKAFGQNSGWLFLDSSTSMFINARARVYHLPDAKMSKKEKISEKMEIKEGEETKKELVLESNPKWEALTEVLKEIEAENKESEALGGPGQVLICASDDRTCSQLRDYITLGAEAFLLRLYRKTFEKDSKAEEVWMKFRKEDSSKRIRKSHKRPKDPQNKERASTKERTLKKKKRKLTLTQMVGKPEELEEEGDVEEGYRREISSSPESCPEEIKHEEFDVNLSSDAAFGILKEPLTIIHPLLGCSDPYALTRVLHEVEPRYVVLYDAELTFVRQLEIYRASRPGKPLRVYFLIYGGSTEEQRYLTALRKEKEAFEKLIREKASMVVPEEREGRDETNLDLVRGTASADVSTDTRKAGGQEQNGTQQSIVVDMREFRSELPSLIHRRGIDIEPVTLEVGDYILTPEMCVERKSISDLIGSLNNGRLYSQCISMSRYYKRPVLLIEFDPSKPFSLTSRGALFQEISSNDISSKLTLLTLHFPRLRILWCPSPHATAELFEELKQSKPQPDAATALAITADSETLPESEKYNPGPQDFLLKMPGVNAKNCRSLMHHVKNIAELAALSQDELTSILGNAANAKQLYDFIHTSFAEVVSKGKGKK
Kind of series: Microplate fluorescence incision assay (endonuclease activity). In kind it is biochemical. The source says: Recombinant human ERCC1–XPF wild-type protein (containing polyhistidine (His-6) tags) was expressed from a bicistronic plasmid (kindly provided by Dr. Richard Wood, University of Texas MD Anderson Cancer Center, Smithville, TX) in the E. coli BL21(DE3) strain, Following previously described procedures ([70], [78]) the proteins extracted from E. coli were eluted from a ProBond Nickel-Chelating Resin (Thermo Fisher Scientific) and then a Hi-trap heparin column (GE Healthcare). Fractions containing ERCC1–XPF were dialyzed, concentrated, and stored at −80°C in 10 mM HEPES, pH 7.4, 2.5 mM β-mercaptoethanol, 0.01% CHAPS, 0.25 mM EDTA, 50% glycerol, and 25 mM NaCl. Based on polyacrylamide gel separation and Coomassie Blue staining, the final purity of the full-length ERCC1-XPF heterodimer was determined to be ~35%.
We employed a previously described protocol ([60], [70], [78]) in which the incision of the stem–loop substrate [6-FAM-5′-[…](20T)[…]-3′-dabcyl] (100 nM in 50 mM Tris-HCl, pH 8, 20 mM NaCl, 0.5 mM DDT, and 0.75 mM MnCl2) mediated by ERCC1-XPF (25 ng) in a total volume of 20 μL at 25°C was monitored by fluorescence using a FLUOstar Optima fluorimeter (BMG Labtech) with Optima software and excitation and emission wavelengths of 485 and 520 nm, respectively, for 5.5 min. The final concentration of inhibitor in the reaction was 10 μM prepared from a 200 μM stock solution in DMSO. With a molecular weight of 151 KDa for the XPF-ERCC1 heterodimer, a concentration of 25 ng of protein in 20 µl reaction buffer and a purity of 35%, the molar concentration of the enzyme was estimated to be 2.9 nM. Data were plotted using Microsoft Excel 2016.
An in vitro fluorescence-based assay was used to assess the ability of the synthesized compounds to inhibit the endonuclease activity of ERCC1-XPF. This assay has been previously described ([60], [70], [78]) and makes use of a stem-loop DNA substrate with a 5’-FAM fluorescent dye, and a 3’-dabcyl quencher. When ERCC1-XPF can cleave the DNA substrate, a 5’-FAM containing molecule is liberated from the stem-loop (and the quencher) and the fluorescence of the solution increases. The increase of the fluorescence of the solution can be observed in Figure 3A , in the absence of any inhibitor. To determine the influence of the inhibitory compounds, the protein was preincubated for 10 minutes with 10 μM of each inhibitor prior to addition of the substrate.

The next series has as its system HCT-116 cells. Kind of series: Clonogenic survival assay, ionizing radiation. To be noted: 0.5 and 1 μM, 0 to 8 Gy γ-radiation. Format: cell-based, human. On the procedure: The effectiveness of compound 6 for sensitization of cells to ionizing radiation was also assessed using the clonogenic survival assay. Briefly, 200-3000 of HCT-116 cells (depending on the radiation dose) were seeded and after 24 hours the cells were pretreated with 0.5 or 1 µM of compound 6 in DMSO for 4 hours followed by exposure to increasing doses of γ-radiation (^60Co Gammacell; Atomic Energy of Canada Limited, Ottawa) from 0 to 8 Gy (at a dose rate of 0.8 Gy/min) and kept for an additional 24 hours in inhibitor-containing medium. The medium was then replaced with fresh medium without the compound, and the plates were incubated at 37°C for 9 more days before staining and determining the number of colonies. Data were plotted using GraphPad Prism version 5.04 software.

The nature of series [1]: Bidirectional permeability in Caco-2 cells. In kind it is in vitro ADME. The following applies: human. On the procedure: The ADME (absorption, distribution, metabolism, and excretion) profile of our lead compound 6 was determined by standard protocols carried out by WuXi AppTec (Shanghai) Co (https://www.wuxiapptec.com/). The following tests were conducted: distribution coefficient (log D at pH 7.4), aqueous solubility (Kinetic), metabolic stability in human liver microsomes and cryopreserved human hepatocytes, bidirectional permeability in Caco-2 cells, serum protein binding, and cytochrome P450 (CYP) inhibition (CYP1A2, CYP2C9, CYP2C19, CYP2D6, and CYP3A4-M).
On the technique in general: Passage across Caco-2 layers is used to estimate intestinal permeability.

SMILES strings stand for the structures. Values joined by “and” are separate entries in the source; they are usually repeats but may differ in a detail not shown here. Equal entries are not always repeated.

For orientation: IC50 means the concentration at which inhibition is half-maximal. As usually defined, the efflux ratio is the permeability from basolateral to apical divided by that in the opposite direction, in the common usage. For the compound `COc1ccc2nc3cc(Cl)ccc3c(Nc3ccc(O)c(CN4CCN(CCN(C(C)C)C(C)C)CC4)c3)c2c1` [Compound 6], the IC50 on ERCC1-XPF is 167 nM and 170 nM. For the same compound, the “inhibition of ERCC1-XPF endonuclease activity (in words, vs control and 4)” value against ERCC1-XPF (10 μM inhibitor, 10 min preincubation) was “increased inhibition of ERCC1-XPF endonuclease activity relative to 4”. On ERCC1-XPF (10 μM inhibitor, at 5.5 minutes), the “decrease of ERCC1-XPF endonuclease activity” value turned out to be 94%. In addition, the “sensitization to ionizing radiation (in words)” value with HCT-116 cells was “sensitized HCT-116 cells in a dose-dependent manner”. The efflux ratio in series [1] came to 27.5.
